Experimental data published in ChEMBL document CHEMBL4483862, “Open-source discovery of chemical leads for next-generation chemoprotective antimalarials” (2018).

System: Plasmodium berghei
Experiment: Luciferase/luciferin-expressing antifolate-resistant parasites were used to infect a culture of HepG2 cells that were pre-incubated with compounds. Infected hepatocytes emit light due to the luciferase reaction. Assay results are presented as the percent inhibition of light emission compared to control. […]
Type: functional
Settings: sporozoite; for IC90: read-out: LUCIFERASE INFECTION ASSAY - IC90
[1] = read-out: LUCIFERASE INFECTION ASSAY - IC50

| SMILES | IC90 | IC50 [1] | also measured |
| --- | --- | --- | --- |
| Brc1cnc2nc(-c3ccccc3)[nH]c2c1 | 7.03 µM | – | IC50 (HEPG2TOX_HILL_SLOPE 8.76, HEPG2TOX_R_SQUARED 0.602, PBLUC_HILL_SLOPE 4.6, PBLUC_R_SQUARED 0.128, read-out: LUCIFERASE INFECTION ASSAY - IC50): 4.36 µM |
| Cn1c(=O)c(C2=NN(C(=O)c3cccs3)C(c3ccco3)C2)c(-c2ccccc2)c2cc(Cl)ccc21 (centres undefined) | > 10 µM | – | IC50 (FFLUC_HILL_SLOPE 47.1, FFLUC_R_SQUARED 0.757, PBLUC_HILL_SLOPE 11.3, PBLUC_R_SQUARED 0.251, read-out: LUCIFERASE INFECTION ASSAY - IC50): 9.29 µM |
| CC(C)(C)c1ccc(OC(=O)Nc2ccc(Cl)c(Cl)c2)c(C(C)(C)C)c1 | > 8.37 µM | – | IC50 (FFLUC_HILL_SLOPE 3, FFLUC_R_SQUARED 0.639, PBLUC_HILL_SLOPE 0.845, PBLUC_R_SQUARED 0.14, read-out: LUCIFERASE INFECTION ASSAY - IC50): > 8.37 µM |
| Cc1cc(NC(=O)C(c2ccc(Cl)cc2)C(C)C)ccc1Br (centres undefined) | > 10 µM | > 10 µM | – |
| CCC(C)NC(=O)c1c(NC(=O)c2ccc(F)cc2F)nc2ccc(C)cn12 (centres undefined) | 3.23 µM | 2.9 µM | – |
| COc1cc(C(O)c2cc(C(F)(F)F)cc(C(F)(F)F)c2)cc(OC)c1OC (centres undefined) | > 8.04 µM | 7.33 µM | – |
| CCN(c1ccccc1)S(=O)(=O)c1cc(NC(=O)Nc2ccccc2C#N)ccc1Cl | > 10 µM | – | IC50 (PBLUC_HILL_SLOPE 14.4, PBLUC_R_SQUARED 0.0813, read-out: LUCIFERASE INFECTION ASSAY - IC50): > 10 µM |
| O=C(CCn1c(-c2ccc(F)cc2)n[nH]c1=S)Nc1nc2c(s1)CCCC2 | > 10 µM | – | IC50 (PBLUC_HILL_SLOPE 2.35, PBLUC_R_SQUARED 0.213, read-out: LUCIFERASE INFECTION ASSAY - IC50): 4.33 µM |
| Cc1cccc(NS(=O)(=O)c2cc(C(=O)OCC(=O)Nc3ccc(F)c(F)c3F)ccc2C)c1 | > 10 µM | > 10 µM | – |
| O=[N+]([O-])c1cc(Cl)cc(/C=N/Nc2cc(C(F)(F)F)ccc2Cl)c1O | > 10 µM | – | IC50 (FFLUC_HILL_SLOPE 3.01, FFLUC_R_SQUARED 0.379, HEPG2TOX_HILL_SLOPE 2.46, HEPG2TOX_R_SQUARED 0.824, read-out: LUCIFERASE INFECTION ASSAY - IC50): > 10 µM |
| O=C1COc2ccc(-c3csc(Nc4ccccc4C(F)(F)F)n3)cc2N1 | > 10 µM | 5.54 µM | – |
| Cc1[nH]c2ccccc2c1C(=O)C(C)OC(=O)C1(c2cccc(F)c2)CCCC1 (centres undefined) | > 10 µM | – | IC50 (HEPG2TOX_HILL_SLOPE 0.175, HEPG2TOX_R_SQUARED 0.148, read-out: LUCIFERASE INFECTION ASSAY - IC50): > 10 µM |
| CNC(=O)CNc1nc(-c2ccccn2)nc2scc(-c3ccccc3)c12 | 7.43 µM | – | IC50 (PBLUC_HILL_SLOPE 4.47, PBLUC_R_SQUARED 0.505, read-out: LUCIFERASE INFECTION ASSAY - IC50): 4.55 µM |
| O=C(Nn1cnc2sc3c(c2c1=O)CCCC3)c1cc(Br)ccc1O | > 10 µM | – | IC50 (PBLUC_HILL_SLOPE 11.5, PBLUC_R_SQUARED 0.145, read-out: LUCIFERASE INFECTION ASSAY - IC50): 9.56 µM |
| Cc1sc2nc3c4ccccc4c(Cl)nn3c(=O)c2c1C | > 10 µM | – | IC50 (HEPG2TOX_HILL_SLOPE 1.74, HEPG2TOX_R_SQUARED 0.905, PBLUC_HILL_SLOPE 1.87, PBLUC_R_SQUARED 0.353, read-out: LUCIFERASE INFECTION ASSAY - IC50): 5.64 µM |
| COc1cc(-c2cc(-c3ccccc3)cnc2N)ccc1O | 4.45 µM | – | IC50 (PBLUC_HILL_SLOPE 13.8, PBLUC_R_SQUARED 0.558, read-out: LUCIFERASE INFECTION ASSAY - IC50): 3.8 µM |
| COc1ccc2c(C(=O)N/N=C/c3cc(Br)c4ccccc4c3O)cccc2c1 | 3.64 µM | – | IC50 (FFLUC_HILL_SLOPE 0.529, FFLUC_R_SQUARED 0.712, HEPG2TOX_HILL_SLOPE 1.8, HEPG2TOX_R_SQUARED 0.756, PBLUC_HILL_SLOPE 12.3, PBLUC_R_SQUARED 0.402, read-out: LUCIFERASE INFECTION ASSAY - IC50): 3.05 µM |
| Cc1ccc(C(=O)CCC(=O)NCc2ccccc2)s1 | > 10 µM | > 10 µM | – |
| O=C(NC1CC1)c1ccc(-c2cnc3cnc(-c4cccs4)cn23)cc1 | > 9.16 µM | – | IC50 (PBLUC_HILL_SLOPE 1.19, PBLUC_R_SQUARED 0.184, read-out: LUCIFERASE INFECTION ASSAY - IC50): > 9.16 µM |
| Cn1/c(=N/NC=C2CCC/C(=C/c3ccccc3)C2=O)sc2ccccc21 | > 10 µM | – | IC50 (PBLUC_HILL_SLOPE 4.26, PBLUC_R_SQUARED 0.398, read-out: LUCIFERASE INFECTION ASSAY - IC50): 8.32 µM |
| O=c1[nH]c2ccc(-c3csc(Nc4ccc(Cl)cc4)n3)cc2o1 | > 10 µM | – | IC50 (HEPG2TOX_HILL_SLOPE 16.7, HEPG2TOX_R_SQUARED 0.933, PBLUC_HILL_SLOPE 4.05, PBLUC_R_SQUARED 0.109, read-out: LUCIFERASE INFECTION ASSAY - IC50): 7.81 µM |

| SMILES | IC90 | IC50 [1] | also measured |
| --- | --- | --- | --- |
| CN(C)Cc1ccc(CNc2ncnc3scc(-c4ccccc4)c23)cc1 | 2.66 µM | 0.704 µM | – |
| CN(Cc1ccccc1)S(=O)(=O)c1ccc(Cl)c(C(=O)Nc2nnc(C(F)(F)F)[nH]2)c1 | 7.66 µM | – | IC50 (PBLUC_HILL_SLOPE 3.05, PBLUC_R_SQUARED 0.465, read-out: LUCIFERASE INFECTION ASSAY - IC50): 3.73 µM |
| COc1ccc(-c2cnc3cnc(-c4ccc(OC)nc4)cn23)cc1 | 8.79 µM | – | IC50 (HEPG2TOX_HILL_SLOPE 10.4, HEPG2TOX_R_SQUARED 0.778, PBLUC_HILL_SLOPE 1.98, PBLUC_R_SQUARED 0.81, read-out: LUCIFERASE INFECTION ASSAY - IC50): 2.91 µM |
| OCCNCCNCc1c(OCc2ccc(F)cc2)ccc2ccccc12 | > 8.96 µM | > 8.96 µM | – |
| COc1ccc(COC(=O)c2sc3nc4n(c(=O)c3c2C)CCC4)cc1F | > 10 µM | – | IC50 (PBLUC_HILL_SLOPE 15.9, PBLUC_R_SQUARED 0.0512, read-out: LUCIFERASE INFECTION ASSAY - IC50): 9.36 µM |
| Cn1c(C(C#N)c2nc(C#N)c(C#N)nc2Cl)nc2ccccc21 (centres undefined) | > 10 µM | – | IC50 (FFLUC_HILL_SLOPE 16, FFLUC_R_SQUARED 0.432, read-out: LUCIFERASE INFECTION ASSAY - IC50): > 10 µM |
| CCc1c(C(=O)NCC2CCS(=O)(=O)C2)cnn1-c1ccc(C)cc1 (centres undefined) | > 10 µM | – | IC50 (PBLUC_HILL_SLOPE 12.8, PBLUC_R_SQUARED 0.197, read-out: LUCIFERASE INFECTION ASSAY - IC50): > 10 µM |
| Cc1cc(NC(=O)C2CC2)sc1C(=O)N1CCNC(=O)C1 | > 10 µM | > 10 µM | – |
| N#C/C(=C\Nc1cc(C(F)(F)F)cc(C(F)(F)F)c1)S(=O)(=O)c1ccc(OC(F)(F)F)cc1 | > 6.54 µM | – | IC50 (PBLUC_HILL_SLOPE 4.15, PBLUC_R_SQUARED 0.029, read-out: LUCIFERASE INFECTION ASSAY - IC50): > 6.54 µM |
| Cc1ccc(S(=O)(=O)N(Cc2ccc(C(=O)NC3CC3)cc2)C2CC2)c(C)c1 | 0.498 µM | – | IC50 (PBLUC_HILL_SLOPE 1.22, PBLUC_R_SQUARED 0.762, read-out: LUCIFERASE INFECTION ASSAY - IC50): 0.0818 µM |
| CC(C)c1ccc(OCC(=O)NC2CCCCCC2)cc1 | > 11.4 µM | > 11.4 µM | – |
| Cc1cc(-n2c(C)cc(C(=O)Cn3ncc(Cl)c(Cl)c3=O)c2C)ccc1Br | 5.84 µM | – | IC50 (FFLUC_HILL_SLOPE 3.61, FFLUC_R_SQUARED 0.511, HEPG2TOX_HILL_SLOPE 4.93, HEPG2TOX_R_SQUARED 0.864, PBLUC_HILL_SLOPE 65.8, PBLUC_R_SQUARED 0.0361, read-out: LUCIFERASE INFECTION ASSAY - IC50): 5.65 µM |
| COc1ccc(NC(=O)c2cc(S(N)(=O)=O)ccc2Br)cc1Cc1ccccc1 | > 10 µM | > 10 µM | – |
| COc1ccc(-c2cnc3ccc(Cc4ccccc4)nn23)cc1OC | 3.83 µM | – | IC50 (HEPG2TOX_HILL_SLOPE 1.09, HEPG2TOX_R_SQUARED 0.956, PBLUC_HILL_SLOPE 11.4, PBLUC_R_SQUARED 0.574, read-out: LUCIFERASE INFECTION ASSAY - IC50): 3.16 µM |
| COc1ccc(-c2cc(-c3cc(C)ccc3O)c3c(n2)-c2ccccc2C3=O)cc1 | > 10 µM | – | IC50 (PBLUC_HILL_SLOPE 6.66, 3.32, PBLUC_R_SQUARED 0.385, 0.180, read-out: LUCIFERASE INFECTION ASSAY - IC50): 9.15 µM |
| Cc1nc(SCC(=O)NCCN2C(=O)CSC2=O)n(C2CCCCC2)c1C | > 10 µM | > 10 µM | – |
| CCOC(=O)/C(C)=N/Nc1ccc(OC(F)(F)F)cc1 | > 11.4 µM | – | IC50 (FFLUC_HILL_SLOPE 15.6, FFLUC_R_SQUARED 0.429, HEPG2TOX_HILL_SLOPE 8.88, HEPG2TOX_R_SQUARED 0.352, PBLUC_HILL_SLOPE 1.63, PBLUC_R_SQUARED 0.496, read-out: LUCIFERASE INFECTION ASSAY - IC50): 9.31 µM |
| N#Cc1ccc(Cc2cnc(NC(=O)c3ccc4ncsc4c3)s2)cc1 | 1.82 µM | – | IC50 (HEPG2TOX_HILL_SLOPE 1.13, HEPG2TOX_R_SQUARED 0.797, PBLUC_HILL_SLOPE 1.77, PBLUC_R_SQUARED 0.567, read-out: LUCIFERASE INFECTION ASSAY - IC50): 0.526 µM |
| COC(=O)c1cc(CSc2nnc(-c3ccc(C)cc3)c(-c3ccc(C)cc3)n2)oc1C | > 10 µM | – | IC50 (FFLUC_HILL_SLOPE 4.52, FFLUC_R_SQUARED 0.588, read-out: LUCIFERASE INFECTION ASSAY - IC50): > 10 µM |
| CC(C)(C)C(=O)/C=c1\s/c(=C\c2ccsc2)c(=O)n1CC(=O)N1CCc2ccccc21 | > 10 µM | > 10 µM | – |
| CC(C)N(CCNC(=O)c1ccc(CSc2nc3ccccc3s2)cc1)C(C)C | 9.07 µM | – | IC50 (PBLUC_HILL_SLOPE 4.35, PBLUC_R_SQUARED 0.48, read-out: LUCIFERASE INFECTION ASSAY - IC50): 5.47 µM |
